Test results as given in the supplement of paper PMC10307832.

Columns and labels:
Assay in all cases: relative viability (nuclei count vs DMSO), 5 days (fraction); higher = more cells survive
[1] = compound: CS(=O)(=O)c1ccc(C(=O)Nc2ccc(Cl)c(-c3ccccn3)c2)c(Cl)c1 [Vismodegib] + CC(=O)Nc1cccc(-n2c(=O)n(C3CC3)c(=O)c3c(Nc4ccc(I)cc4F)n(C)c(=O)c(C)c32)c1 [Trametinib] (partner 0.02 µM)
How it was run: (§1)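 Relative viability divides the nuclei count in treated wells by that in vehicle wells. Lung cancer cell lines were seeded in 1536-well plates, dosed by pin tool the next day, and fixed and stained after 5 days in one step with final 0.05% Triton X-100, 1% formaldehyde and 1 ug/ml Hoechst. Dosing was a single drug or a fixed anchor-drug dose plus five library-drug doses (not always all listed) in √10 steps, and values are medians of duplicate plates imaged at 4×.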

[2] = compound: CS(=O)(=O)c1ccc(-c2cnc(N)c(C(=O)Nc3ccccc3)n2)cc1 [VE-821] + CC(=O)c1c(C)c2cnc(Nc3ccc(N4CCNCC4)cn3)nc2n(C2CCCC2)c1=O [Palbociclib] (partner 0.5 µM)
How it was run: as §1

[3] = compound: N#CC[C@H](C1CCCC1)n1cc(-c2ncnc3[nH]ccc23)cn1 [Ruxolitinib] + CCNC(=O)c1noc(-c2cc(C(C)C)c(O)cc2O)c1-c1ccc(CN2CCOCC2)cc1 [Luminespib] (partner 0.01 µM)
How it was run: as §1

[4] = compound: CS(=O)(=O)c1ccc(C(=O)Nc2ccc(Cl)c(-c3ccccn3)c2)c(Cl)c1 [Vismodegib] + Cc1nc(NC(=O)N2CCC[C@H]2C(N)=O)sc1-c1ccnc(C(C)(C)C(F)(F)F)c1 [Alpelisib] (partner 2 µM)
How it was run: as §1

Cell Line	relative viability ([1]; first compound 0.08 µM)	relative viability ([1]; first compound 0.253 µM)	relative viability ([1]; first compound 0.8 µM)	relative viability ([1]; first compound 2.53 µM)	relative viability ([1]; first compound 8 µM)	relative viability ([2]; first compound 0.08 µM)	relative viability ([2]; first compound 0.8 µM)	relative viability ([2]; first compound 2.53 µM)	relative viability ([2]; first compound 8 µM)	relative viability ([3]; first compound 0.08 µM)	relative viability ([3]; first compound 0.253 µM)	relative viability ([3]; first compound 0.8 µM)	relative viability ([3]; first compound 2.53 µM)	relative viability ([3]; first compound 8 µM)	relative viability ([4]; first compound 0.08 µM)	relative viability ([4]; first compound 0.253 µM)	relative viability ([4]; first compound 0.8 µM)	relative viability ([4]; first compound 2.53 µM)	relative viability ([4]; first compound 8 µM)	relative viability ([2]; first compound 0.253 µM)
NCI-H1648	0.38	0.48	0.383	0.49	0.535	0.269	0.252	0.265	0.349											
NCI-H1623										0.423	0.431	0.705	0.526	0.765						
NCI-H661	0.549	0.611	0.649	0.558	0.622	0.409	0.415	0.4	0.413	0.892	1.01	0.93	0.94	0.768	0.263	0.701	0.71	0.595	0.84	0.453
NCI-H596	0.746	0.82	0.744	0.779	0.896					1.03	0.889	1.4	1.17	1	0.438	0.448	0.51	0.472	0.545	
IA-LM															0.778	0.728	0.966	0.582	1.04	
LC-2-ad	0.892	0.834	0.894	0.834	0.898	0.557	0.559	0.504	0.514		1	1	0.693	0.688	0.894	0.909	0.859	0.818	0.918	0.473
Calu-6															0.97	0.976	0.901	1.09	0.979	
NCI-H2126	0.558	0.519	0.568	0.58	0.565	0.36	0.333	0.296	0.32	0.879	0.922	1.13	0.933	0.784	0.681	0.734	0.782	0.686	0.706	0.336
NCI-H647	0.446	0.486	0.517	0.409	0.55	0.385	0.349	0.371	0.15	0.18	0.228	0.367	0.0851	0.144	1.09	0.979	1.15	0.798	1.45	0.297
NCI-H322M	0.52	0.507	0.522	0.518	0.525	0.446	0.463	0.483	0.443	0.806	0.927	0.918	0.984	1.17	0.813	0.756	0.744	0.917	0.773	0.462
NCI-H358	0.151	0.139	0.14	0.128	0.139	0.13	0.134	0.135	0.133	0.309	0.238	0.312	0.362	0.168	0.75	0.916	0.695	0.868	1.04	0.14
